Reference: patent US10294202B2, “Pyrrolidinones as herbicides” (FMC Corporation, priority 2013, dated 2019)

Columns and labels:
giant foxtail = experiment: Test A pre-/postemergence herbicide test; format: in vivo, Setaria faberii
Method in brief: (§1)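 Planted in loam–sand blend; treated the same day preemergence by directed soil spray, while separately grown plants at one- to two-leaf stage got postemergence spray. Compared visually with untreated controls after approximately 10 days; 100 means complete control.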

ducksalad = experiment: Test C flooded paddy test; format: in vivo, Heteranthera limosa; settings: Flood
Method in brief: (§2)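 2-leaf stage; flood 3 cm over soil; compound into paddy water; depth held; greenhouse 13–15 d; visual % control vs untreated (0 = none, 100 = complete); "-" = not tested.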

velvetleaf = experiment: Test A pre-/postemergence herbicide test; format: in vivo, Abutilon theophrasti
Method in brief: as §1

pigweed = experiment: Test A pre-/postemergence herbicide test; format: in vivo, Amaranthus retroflexus
Method in brief: as §1

wheat = experiment: Test A pre-/postemergence herbicide test; format: in vivo, Triticum aestivum
Method in brief: as §1

corn = experiment: Test A pre-/postemergence herbicide test; format: in vivo, Zea mays
Method in brief: as §1

morningglory = experiment: Test A pre-/postemergence herbicide test; format: in vivo, Ipomoea spp.
Method in brief: as §1

crabgrass, large = experiment: Test A pre-/postemergence herbicide test; format: in vivo, Digitaria sanguinalis
Method in brief: as §1

barnyardgrass [1] = experiment: Test A pre-/postemergence herbicide test; format: in vivo, Echinochloa crus-galli
Method in brief: as §1

rice = experiment: Test C flooded paddy test; format: in vivo, Oryza sativa; settings: Flood
From the text: Plant species in the flooded paddy test consisted of rice (Oryza sativa), sedge, umbrella (small-flower umbrella sedge, Cyperus difformis), ducksalad (Heteranthera limosa), and barnyardgrass (Echinochloa crus-galli) grown to the 2-leaf stage for testing. At time of treatment, test pots were flooded to 3 cm above the soil surface, treated by application of test compounds directly to the paddy water, and then maintained at that water depth for the duration of the test. Treated plants and controls were maintained in a greenhouse for 13 to 15 days, after which time all species were compared to controls and visually evaluated. Plant response ratings, summarized in Table C, are based on a scale of 0 to 100 where 0 is no effect and 100 is complete control. A dash (-) response means no test result.

sedge, umbrella = experiment: Test C flooded paddy test; format: in vivo, Cyperus difformis; settings: Flood
Method in brief: as §2

barnyardgrass [2] = experiment: Test C flooded paddy test; format: in vivo, Echinochloa crus-galli; settings: Flood
Method in brief: as §2

[3] = Postemergence, 125 g ai/ha, 0 to 100 scale, 0 no effect, 100 complete control
[4] = Postemergence, 500 g ai/ha, 0 to 100 scale (0 no effect, 100 complete control)
[5] = Preemergence, 125 g ai/ha, visual rating on 0 to 100 scale (0 no effect, 100 complete control)
[6] = preemergence, 500 g ai/ha, 0 to 100 scale
[7] = 31 g ai/ha, scale of 0 to 100 where 0 is no effect and 100 is complete control, 13 to 15 days
[8] = 62 g ai/ha, scale of 0 to 100 where 0 is no effect and 100 is complete control, 13 to 15 days
[9] = 125 g ai/ha, scale of 0 to 100 where 0 is no effect and 100 is complete control, 13 to 15 days
[10] = preemergence, 500 g ai/ha, 0 to 100 scale (0 no effect, 100 complete control)
[11] = Postemergence, 1000 g ai/ha, 0 to 100 scale (0 no effect, 100 complete control)
[12] = Preemergence, 1000 g ai/ha, visual rating on 0 to 100 scale (0 no effect, 100 complete control), approx. 10 days

O=C1NCC(c2cccc(C(F)(F)F)c2)C1C(=O)Nc1ccccc1C(F)(F)F (racemic) [Compound 4]
Plant response rating, Foxtail, Giant (giant foxtail; [3]): 60 | Plant response rating, Foxtail, Giant (giant foxtail; [4]): 70 | Foxtail, Giant plant response rating (giant foxtail; [5]): 80 | Plant response rating, Foxtail, Giant (giant foxtail; [6]): 90 | Plant response rating, Ducksalad (ducksalad; [7]): 20 | Plant response rating, Ducksalad (ducksalad; [8]): 30 | Plant response rating, Ducksalad (ducksalad; [9]): 80 | Plant response rating, Ducksalad (ducksalad; 250 g ai/ha, scale 0 to 100): 85 | Plant response rating, Velvetleaf (velvetleaf; [4]): 0 | Velvetleaf plant response rating (velvetleaf; [5]): 0 | Plant response rating, Velvetleaf (velvetleaf; [6]): 0 | Plant response rating, Pigweed (pigweed; [4]): 50 | Pigweed plant response rating (pigweed; [5]): 0 | Plant response rating, Pigweed (pigweed; [6]): 0 | Plant response rating, Wheat (wheat; [4]): 50 | Wheat plant response rating (wheat; [5]): 60 | Plant response rating, Wheat (wheat; [6]): 70 | Plant response rating, Corn (corn; [3]): 0 | Plant response rating, Corn (corn; [4]): 50 | Corn plant response rating (corn; [5]): 0 | Plant response rating, Corn (corn; [6]): 0 | Plant response rating, Morningglory (morningglory; [4]): 30 | Morningglory plant response rating (morningglory; [5]): 0 | Plant response rating, Morningglory (morningglory; [6]): 0 | Plant response rating, Crabgrass, Large (crabgrass, large; [3]): 60 | Plant response rating, Crabgrass, Large (crabgrass, large; [4]): 80 | Crabgrass, Large plant response rating (crabgrass, large; [5]): 90 | Plant response rating, Crabgrass, Large (crabgrass, large; [6]): 90 | Plant response rating, Barnyardgrass (barnyardgrass [1]; [3]): 60 | Plant response rating, Barnyardgrass (barnyardgrass [1]; [4]): 70 | Barnyardgrass plant response rating (barnyardgrass [1]; [5]): 60 | Plant response rating, Barnyardgrass (barnyardgrass [1]; [10]): 80 | Plant response rating, Rice (rice; [7]): 0 | Plant response rating, Rice (rice; [8]): 0 | Plant response rating, Rice (rice; [9]): 0 | Plant response rating, Rice (rice; 250 g ai/ha, scale 0 to 100): 0 | Plant response rating, Sedge, Umbrella (sedge, umbrella; [7]): 0 | Plant response rating, Sedge, Umbrella (sedge, umbrella; [8]): 0 | Plant response rating, Sedge, Umbrella (sedge, umbrella; [9]): 0 | Plant response rating, Sedge, Umbrella (sedge, umbrella; 250 g ai/ha, scale 0 to 100): 0 | Plant response rating, Barnyardgrass (barnyardgrass [2]; [7]): 0 | Plant response rating, Barnyardgrass (barnyardgrass [2]; [8]): 0 | Plant response rating, Barnyardgrass (barnyardgrass [2]; [9]): 30 | Plant response rating, Barnyardgrass (barnyardgrass [2]; 250 g ai/ha, scale 0 to 100): 40

CC1NC(=O)C(C(=O)Nc2ccccc2C(F)(F)F)C1c1ccc(F)c(F)c1 (mixture of isomers) [Compound 10]
Plant response rating, Foxtail, Giant (giant foxtail; [3]): 0 | Plant response rating, Foxtail, Giant (giant foxtail; [4]): 30 | Foxtail, Giant plant response rating (giant foxtail; [5]): 60 | Plant response rating, Foxtail, Giant (giant foxtail; [6]): 90 | Plant response rating, Ducksalad (ducksalad; [7]): 0 | Plant response rating, Ducksalad (ducksalad; [8]): 0 | Plant response rating, Ducksalad (ducksalad; [9]): 0 | Plant response rating, Ducksalad (ducksalad; 250 g ai/ha, scale 0 to 100): 0 | Plant response rating, Velvetleaf (velvetleaf; [3]): 0 | Plant response rating, Velvetleaf (velvetleaf; [4]): 0 | Velvetleaf plant response rating (velvetleaf; [5]): 0 | Plant response rating, Velvetleaf (velvetleaf; [6]): 0 | Plant response rating, Pigweed (pigweed; [3]): 0 | Plant response rating, Pigweed (pigweed; [4]): 0 | Pigweed plant response rating (pigweed; [5]): 0 | Plant response rating, Pigweed (pigweed; [6]): 0 | Plant response rating, Wheat (wheat; [3]): 0 | Plant response rating, Wheat (wheat; [4]): 0 | Wheat plant response rating (wheat; [5]): 0 | Plant response rating, Wheat (wheat; [6]): 0 | Plant response rating, Corn (corn; [3]): 0 | Plant response rating, Corn (corn; [4]): 0 | Corn plant response rating (corn; [5]): 0 | Plant response rating, Corn (corn; [6]): 0 | Plant response rating, Morningglory (morningglory; [3]): 0 | Plant response rating, Morningglory (morningglory; [4]): 0 | Morningglory plant response rating (morningglory; [5]): 0 | Plant response rating, Morningglory (morningglory; [6]): 0 | Plant response rating, Crabgrass, Large (crabgrass, large; [3]): 20 | Plant response rating, Crabgrass, Large (crabgrass, large; [4]): 60 | Crabgrass, Large plant response rating (crabgrass, large; [5]): 90 | Plant response rating, Crabgrass, Large (crabgrass, large; [6]): 90 | Plant response rating, Barnyardgrass (barnyardgrass [1]; [3]): 0 | Plant response rating, Barnyardgrass (barnyardgrass [1]; [4]): 40 | Barnyardgrass plant response rating (barnyardgrass [1]; [5]): 0 | Plant response rating, Barnyardgrass (barnyardgrass [1]; [10]): 40 | Plant response rating, Rice (rice; [7]): 0 | Plant response rating, Rice (rice; [8]): 0 | Plant response rating, Rice (rice; [9]): 0 | Plant response rating, Rice (rice; 250 g ai/ha, scale 0 to 100): 0 | Plant response rating, Sedge, Umbrella (sedge, umbrella; [7]): 0 | Plant response rating, Sedge, Umbrella (sedge, umbrella; [8]): 0 | Plant response rating, Sedge, Umbrella (sedge, umbrella; [9]): 0 | Plant response rating, Sedge, Umbrella (sedge, umbrella; 250 g ai/ha, scale 0 to 100): 0 | Plant response rating, Barnyardgrass (barnyardgrass [2]; [7]): 0 | Plant response rating, Barnyardgrass (barnyardgrass [2]; [8]): 0 | Plant response rating, Barnyardgrass (barnyardgrass [2]; [9]): 0 | Plant response rating, Barnyardgrass (barnyardgrass [2]; 250 g ai/ha, scale 0 to 100): 0

O=C1NCC(c2ccc(F)c(F)c2)C1C(=O)Nc1ccccc1[N+](=O)[O-] (racemic) [Compound 20]
Plant response rating, Foxtail, Giant (giant foxtail; [11]): 80 | Plant response rating, Foxtail, Giant (giant foxtail; [12]): 90 | Plant response rating, Ducksalad (ducksalad; [7]): 0 | Plant response rating, Ducksalad (ducksalad; [8]): 0 | Plant response rating, Ducksalad (ducksalad; [9]): 0 | Plant response rating, Ducksalad (ducksalad; 250 g ai/ha, scale 0 to 100): 0 | Plant response rating, Velvetleaf (velvetleaf; [11]): 0 | Plant response rating, Velvetleaf (velvetleaf; [12]): 30 | Plant response rating, Pigweed (pigweed; [11]): 0 | Plant response rating, Pigweed (pigweed; [12]): 0 | Plant response rating, Wheat (wheat; [11]): 20 | Plant response rating, Wheat (wheat; [12]): 0 | Plant response rating, Corn (corn; [11]): 0 | Plant response rating, Corn (corn; [12]): 0 | Plant response rating, Morningglory (morningglory; [11]): 0 | Plant response rating, Morningglory (morningglory; [12]): 0 | Plant response rating, Crabgrass, Large (crabgrass, large; [11]): 90 | Plant response rating, Crabgrass, Large (crabgrass, large; [12]): 90 | Plant response rating, Barnyardgrass (barnyardgrass [1]; [11]): 80 | Plant response rating, Barnyardgrass (barnyardgrass [1]; [12]): 90 | Plant response rating, Rice (rice; [7]): 0 | Plant response rating, Rice (rice; [8]): 0 | Plant response rating, Rice (rice; [9]): 0 | Plant response rating, Rice (rice; 250 g ai/ha, scale 0 to 100): 0 | Plant response rating, Sedge, Umbrella (sedge, umbrella; [7]): 0 | Plant response rating, Sedge, Umbrella (sedge, umbrella; [8]): 0 | Plant response rating, Sedge, Umbrella (sedge, umbrella; [9]): 0 | Plant response rating, Sedge, Umbrella (sedge, umbrella; 250 g ai/ha, scale 0 to 100): 0 | Plant response rating, Barnyardgrass (barnyardgrass [2]; [7]): 0 | Plant response rating, Barnyardgrass (barnyardgrass [2]; [8]): 0 | Plant response rating, Barnyardgrass (barnyardgrass [2]; [9]): 0 | Plant response rating, Barnyardgrass (barnyardgrass [2]; 250 g ai/ha, scale 0 to 100): 0

O=C1NCC(c2ccsc2)C1C(=O)Nc1ccccc1C(F)(F)F (racemic) [Compound 28]
Plant response rating, Foxtail, Giant (giant foxtail; [3]): 0 | Plant response rating, Foxtail, Giant (giant foxtail; [4]): 0 | Foxtail, Giant plant response rating (giant foxtail; [5]): 0 | Plant response rating, Foxtail, Giant (giant foxtail; [6]): 20 | Plant response rating, Ducksalad (ducksalad; [7]): 20 | Plant response rating, Ducksalad (ducksalad; [8]): 30 | Plant response rating, Ducksalad (ducksalad; [9]): 40 | Plant response rating, Ducksalad (ducksalad; 250 g ai/ha, scale 0 to 100): 85 | Plant response rating, Velvetleaf (velvetleaf; [4]): 0 | Velvetleaf plant response rating (velvetleaf; [5]): 0 | Plant response rating, Velvetleaf (velvetleaf; [6]): 0 | Plant response rating, Pigweed (pigweed; [3]): 0 | Plant response rating, Pigweed (pigweed; [4]): 0 | Pigweed plant response rating (pigweed; [5]): 0 | Plant response rating, Pigweed (pigweed; [6]): 0 | Plant response rating, Wheat (wheat; [3]): 0 | Plant response rating, Wheat (wheat; [4]): 0 | Wheat plant response rating (wheat; [5]): 0 | Plant response rating, Wheat (wheat; [6]): 0 | Plant response rating, Corn (corn; [3]): 0 | Plant response rating, Corn (corn; [4]): 0 | Corn plant response rating (corn; [5]): 0 | Plant response rating, Corn (corn; [6]): 0 | Plant response rating, Morningglory (morningglory; [3]): 0 | Plant response rating, Morningglory (morningglory; [4]): 0 | Morningglory plant response rating (morningglory; [5]): 0 | Plant response rating, Morningglory (morningglory; [6]): 0 | Plant response rating, Crabgrass, Large (crabgrass, large; [3]): 20 | Plant response rating, Crabgrass, Large (crabgrass, large; [4]): 40 | Crabgrass, Large plant response rating (crabgrass, large; [5]): 30 | Plant response rating, Crabgrass, Large (crabgrass, large; [6]): 80 | Plant response rating, Barnyardgrass (barnyardgrass [1]; [3]): 0 | Plant response rating, Barnyardgrass (barnyardgrass [1]; [4]): 0 | Barnyardgrass plant response rating (barnyardgrass [1]; [5]): 0 | Plant response rating, Barnyardgrass (barnyardgrass [1]; [10]): 20 | Plant response rating, Rice (rice; [7]): 0 | Plant response rating, Rice (rice; [8]): 0 | Plant response rating, Rice (rice; [9]): 0 | Plant response rating, Rice (rice; 250 g ai/ha, scale 0 to 100): 0 | Plant response rating, Sedge, Umbrella (sedge, umbrella; [7]): 0 | Plant response rating, Sedge, Umbrella (sedge, umbrella; [8]): 0 | Plant response rating, Sedge, Umbrella (sedge, umbrella; [9]): 0 | Plant response rating, Sedge, Umbrella (sedge, umbrella; 250 g ai/ha, scale 0 to 100): 0 | Plant response rating, Barnyardgrass (barnyardgrass [2]; [7]): 0 | Plant response rating, Barnyardgrass (barnyardgrass [2]; [8]): 0 | Plant response rating, Barnyardgrass (barnyardgrass [2]; [9]): 0 | Plant response rating, Barnyardgrass (barnyardgrass [2]; 250 g ai/ha, scale 0 to 100): 0
